# Measured values reported in patent US20050042747A1, “Hivgp120-induced bob/gpr15 activation” (priority 2001, published 2005).
# What was measured:
# Format in all cases: cell-based, human
# [1] = test system: microtubules in HT-29 cells; assay: Microtubule staining (acetylated tubulin) in HT-29 cells; details: one hour after gp120 treatment
# Protocol: To examine the microtubules, HT-29 cells were treated with 10 nM gp120CM235 or 50 pM gp120IIIB, then fixed one hour later in 4 g/100 ml paraformaldehyde PBS, then stained with mouse anti acetylated tubulin (5 μg/ml, Sigma) by a method similar to that given above. Some cells were pretreated with 50 μg/ml antiBob37 overnight, 1 μg/ml pertussis toxin overnight, or 4.6 μg/ml U73122 for one hour before the gp120 was added. Untreated cells were also stained.
# Similarly treated undifferentiated HT-29 cells (except that Fluo-4 was not added) were fixed in paraformaldehyde phosphate buffered saline one hour after gp120 treatment.
# [2] = test system: peripheral blood mononuclear cells; assay: gp120-induced calcium flux in peripheral blood mononuclear cells
# Protocol: Normal human peripheral blood mononuclear cells were isolated by Ficoll gradient centrifugation, and loaded with the calcium sensitive dye Fluo-4. HIV gp120IIIB induced strong calcium fluxes in the range of 7 nM to 50 pM, and there was a weaker signal at 5 pM.
# Experiments corresponding to those with HT-29 cells were done with peripheral blood mononuclear cells. These were isolated from the blood of a healthy, HIV-uninfected person by a Ficoll-Hypaque techique (Histopaque, Sigma), then loaded with Fluo-4 by a technique nearly identical to that used for HT-29 cells, except that Hank's buffer was used rather than Locke's, and the cells were centrifuged (2,000 g for 10 minutes) just before calcium flux measurements to improve adherence. Gp120-induced calcium fluxes were documented with as little as 5 pM gp120IIIB.
# HT-29 cells = assay: Calcium signaling in HT-29 cells (Fluo 4, confocal microscope)
# Protocol: HT-29 cells (from ATCC) were grown in DMEM-F12 with 10% bovine calf serum, and were used 24-48 hours after plating. The Ghost (3) cells were obtained from the AIDS Research and Reference Reagent Program, and were grown DMEM with 10% bovine calf serum supplemented with 500 μg/ml G418, 100 μg/ml hygromycin, and 1 μg/ml puromycin.^27 These cells were used 24 to 96 hours after plating.
# Calcium studies were done on HT-29 cells and Ghost (3) cells loaded with Fluo 4. The cells were placed in Locke's buffer containing 5 μg/ml Fluo 4 AM ester (Molecular Probes) for 20 to 30 minutes, then in Locke's buffer for an additional 30 minutes before testing. Various concentrations of gp120IIIB (X4 trophic), gp120CM235 (R5 trophic), gp120mN (X4 trophic), gp12093TH975 (nonsyncytium-inducing primary isolate from an asymptomatic subject, trophism undetermined but likely R5), and gp120SF2 (X4R5 trophic), ranging from 10 nM to less than 1 pM, were added in Locke's buffer.^6 The gp120 proteins were obtained from the AIDS Research Reagent Referral Program. Some HT-29 cells were given one of the following pretreatments: 50 μg/ml anti-Bob37 overnight, 1 μg/ml pertussis toxin overnight, or 4.6 μg/ml U73122 for one hour. With the HT-29 cells only, similar tests were also performed with SDF-1, MIP-1α, MIP-1β, and RANTES rather than gp120. The cells were visualized every 4 seconds in a confocal microscope, using 488 nm argon laser excitation and detection filters appropriate for fluorescein-like dyes.
# For the first two or three days after plating, gp120 induces an immediate (within 4 seconds) calcium flux in undifferentiated HT-29 cells. The cells had previously been loaded with Fluo-4 AM ester (Molecular Probes, Eugene Oreg.) 5 micrograms/ml in the presence of Pleuronic F-127 0.02% in Locke's buffer for 30 minutes, then incubated at room temperature for an additional 30 minutes. Gp120IIIB was added while the cells were on an inverted confocal microscope using a 488 nm argon laser, with detection filters suitable for fluorescein-like dyes. […]
substance,measurement,setting,value
"gp120IIIB: HIV-1 envelope surface protein gp120 of strain IIIB (X4 trophic), from the AIDS Research Reagent Referral Program",effect on acetylated tubulin-staining microtubules,[1],marked loss of microtubules
same,cells substantially brighter after treatment (increase in intracellular calcium),"[2]; 50 picomolar, 4 seconds after treatment, Fluo-4",Approximately 30%
same,lowest gp120IIIB concentration giving calcium flux,[2]; freshly isolated cells,5 pM
same,"calcium signaling in HT-29 cells, in words",HT-29 cells,induced an immediate calcium signal
same,minimal concentration causing calcium signaling,"HT-29 cells; undifferentiated HT-29 cells, serial dilution",1 pM
